Data reported in article PMC11984905, “Chiral Switch of Gadopiclenol: New Standards in MRI Probes” (Advanced Science, 2025).

Key:
[1] = Relaxivity at 21 / 400 MHz and 25 °C in 0.15 M NaCl; assay type: physicochemical; details: 0.15 M NaCl
Procedure: The relaxivity values were calculated from the longitudinal relaxation time of H2O protons (T 1) measured at 21 MHz on a Stelar relaxometer connected to a Bruker WP80 NMR electromagnet adapted to variable‐field measurements (15−80 MHz proton Larmor frequency). The temperature of the sample holder was controlled with a thermostatted air stream. The longitudinal relaxation time was measured with the “inversion recovery” method (180° – τ – 90°) by using 12 different τ values with typical 90° pulse width of 6.4 µs, 4 scans. The measurements were performed with 1 mM solution of the Gd(III)‐complexes with rac‐L1, ent‐L1, rac‐L2, and ent‐L2 ligands, so the relaxivity values were given as r 1 = […] where T 1p and T 1w were the relaxation time of bulk water protons in the presence and absence of paramagnetic species, respectively. The variable pH relaxivity measurements of Gd(III)‐complexes with rac‐L1, ent‐L1, rac‐L2, and ent‐L2 ligands could be carried out by direct titration of the samples in the pH range 2.5–9.0 (21 MHz, 25 °C, 0.15 M NaCl). The pH was adjusted by stepwise addition of concentrated NaOH or HCl solution.
The stability constant of Gd(III)‐complexes with rac‐L2 and ent‐L2 ligands were determined by the measurement of the proton relaxation rates (r 1) studying the competition reaction of rac‐L2 and ent‐L2 ligands with AAZTA for Gd(III) ion at pH = 4.0 in 0.15 M NaCl solution. In these experiments, the concentration of Gd^3+, rac‐L2, and ent‐L2 ligands was 2.0 mM, while that of the AAZTA was varied between 1.0 and 6.0 mM (5 × 1.5 mL samples). The pH was adjusted to pH 4.0 by stepwise addition of concentrated NaOH or HCl solutions. The samples were kept at 70 °C for a month and then at 25°C for two months in order to attain the equilibrium (the time needed to reach the equilibria was determined by ^1H‐NMR relaxometry). ^1H‐NMR relaxometric measurement of Gd(III) – rac‐L2 – AAZTA and Gd(III) – ent‐L2 – AAZTA systems were performed with a Bruker Avance III 400 (9.4 T) equipped with BB inverse z gradient probe (5 mm). The longitudinal relaxation time (T 1) was measured with the “inversion recovery” method (180° – τ – 90°) by using 12 different τ values with typical 90° pulse width of 12.0 µs, 4 scans at 298 K. The stability constants of [Gd(rac‐L2)] and [Gd(ent‐L2)] complexes were calculated by considering the protonation constants of AAZTA ligand and the stability constant of [Gd(AAZTA)]^− complex (AAZTA: logK 1 ^H = 10.06, logK 2 ^H = 6.50, logK 3 ^H = 3.77, logK 4 ^H = 2.33, logK 5 ^H = 1.51; [Gd(AAZTA)]^−: logK GdL = 18.93, 0.15 M NaCl, 25 °C).^[ [47] ^] The equilibrium constants were calculated with the program PSEQUAD.^[ [48] ^]

[2] = Stability, protonation and conditional stability constants (pGd) of Gd(III)-complexes (out-of-cell pH-potentiometry, 1H NMR relaxometry, competition with AAZTA); assay type: physicochemical; details: for logK^c GdL: conditional stability constant at pH 7.4; for *logKGd(H2L): diprotonated out-of-cage intermediate; for pGd: pGd = -log[Gd^3+]free, [Gd^3+]tot = 1 µM, [L]tot = 10 µM; for pGd / logK^cGdL and pGd higher than that of the parent [Gd(PCTA)] / conditional stability higher than that of the racemic counterparts: pH 7.4; for stability constant of Gd(III)-complex higher than that of the racemic complex: vs [Gd(rac-L1)]3- and [Gd(rac-L2)]; for conditional stability higher than that of the racemic counterparts: logK^c GdL and pGd; for logKGdLH-1: deprotonation of inner-sphere water
Procedure: The protonation constants of ligands, the stability and protonation constants of Ca(II)‐ and Zn(II)‐complexes formed with rac‐L1, ent‐L1, rac‐L2, and ent‐L2 ligands were determined by pH‐potentiometric titration. The metal‐to‐ligand concentration ratio was 1:1 (the concentration of the ligand was generally 0.002 M). The protonation constants of the Cu(II)‐ and Gd(III)‐complexes were determined using pH‐potentiometry by titrating the pre‐prepared complexes from pH 2.0 to 12.0 with 0.2 M NaOH. The stability constants of the Gd(III)‐complexes with rac‐L1 and ent‐L1 ligands were determined by the “out‐of‐cell” technique because of their slow formation reaction. The pH range of the complexation equilibria and the time needed to reach the equilibria were determined by relaxometry. Eight–eight Gd(III) – rac‐L1 and Gd(III) – ent‐L1 samples were prepared, with pH values in the range of 1.7–3.0 at equilibrium ([Gd^3+] = [L] = 0.002 M). The samples were kept at 25 °C for 6 weeks to reach equilibrium. For the calculation of the stability constants of the [Gd(rac‐L1)]^3− and [Gd(ent‐L1)]^3− complexes, besides the protonation constants of ligands and the Gd(III) complexes, the stability constants of the di‐protonated [^*Gd(H2 rac‐L1)]^− and [^*Gd(H2 […])]^− out‐of‐cage complexes (considered as intermediates) was also used as fixed values, which were calculated from the pH‐potentiometric titration curve of the Gd(III) – rac‐L1 and Gd(III) – ent‐L1 system obtained in the pH range of 1.7–7.0.
For the pH measurements and titrations, the Metrohm 888 Titrando titration workstation Metrohm‐6.0234.110 combined electrode was used. Equilibrium measurements were carried out at a constant ionic strength (0.15 M NaCl) in 6 mL samples at 25 °C. The solutions were stirred, and N2 was bubbled through them. The titrations were made in the pH range 1.7–12.0. KH‐Phthalate (pH 4.005) and borax (pH 9.177) buffers were used to calibrate the pH meter. For the calculation of [H^+] from the measured pH values, the method proposed by Irving et al. was used as follows.^[ [46] ^] A 0.01M HCl solution was titrated with standardized NaOH solution at 0.15 M NaCl ionic strength. The differences (A) between the measured (pHread) and calculated pH (‐log[H^+]) values were used to obtain the equilibrium H^+ concentration from the pH values measured in the titration experiments (A = 0.02). For the equilibrium calculations, the stoichiometric water ionic product (pK w) was also needed in order to calculate [OH^−] values under basic conditions. The VNaOH – pHread data pairs of the HCl – NaOH titration obtained in the pH range 10.5–12.0 were used to calculate the pK w value (pK w = 13.83).
The stability constant of Gd(III)‐complexes with rac‐L2 and ent‐L2 ligands were determined by the measurement of the proton relaxation rates (r 1) studying the competition reaction of rac‐L2 and ent‐L2 ligands with AAZTA for Gd(III) ion at pH = 4.0 in 0.15 M NaCl solution. In these experiments, the concentration of Gd^3+, rac‐L2, and ent‐L2 ligands was 2.0 mM, while that of the AAZTA was varied between 1.0 and 6.0 mM (5 × 1.5 mL samples). The pH was adjusted to pH 4.0 by stepwise addition of concentrated NaOH or HCl solutions. The samples were kept at 70 °C for a month and then at 25°C for two months in order to attain the equilibrium (the time needed to reach the equilibria was determined by ^1H‐NMR relaxometry). ^1H‐NMR relaxometric measurement of Gd(III) – rac‐L2 – AAZTA and Gd(III) – ent‐L2 – AAZTA systems were performed with a Bruker Avance III 400 (9.4 T) equipped with BB inverse z gradient probe (5 mm). […]

| logK GdL ([2]; 0.15 M NaCl, 25 °C) | logKGdH2L ([2]; 0.15 M NaCl, 25 °C) | logKGdH3L ([2]; 0.15 M NaCl, 25 °C) | logKGdHL ([2]; 0.15 M NaCl, 25 °C) | logK^c GdL ([2]; 0.15 M NaCl) | *logKGd(H2L) ([2]; 0.15 M NaCl, 25 °C) | pGd ([2]; 0.15 M NaCl) | logK^cGdL and pGd higher than that of the parent [Gd(PCTA)] [2] | stability constant of Gd(III)-complex higher than that of the racemic complex [2] | conditional stability higher than that of the racemic counterparts [2] | logKGdH4L ([2]; 0.15 M NaCl, 25 °C) | logKGdLH-1 ([2]; 0.15 M NaCl, 25 °C) | Structure (SMILES) | Relaxivity of GdH2L species ([1]; 21 MHz) | Relaxivity of GdH3L species ([1]; 21 MHz) | Relaxivity of GdHL species ([1]; 21 MHz) | Relaxivity of GdL species ([1]; 21 MHz) | Relaxivity of GdH4L species ([1]; 21 MHz) | Relaxivity of GdL species ([1]; 400 MHz) |
| --- | --- | --- | --- | --- | --- | --- | --- | --- | --- | --- | --- | --- | --- | --- | --- | --- | --- | --- |
|  |  |  |  |  |  |  |  |  | 0.6 – 1.5 logK unit |  |  | O=C(CCC(C(=O)[O-])N1CCN(C(CCC(=O)NCC(O)CO)C(=O)[O-])Cc2cccc(n2)CN(C(CCC(=O)NCC(O)CO)C(=O)[O-])CC1)NCC(O)CO.[Gd+3] (stereo not drawn) [[Gd(ent‐L2)]] |  |  |  |  |  |  |
| 18.96 (7) |  |  |  | 16.76 |  | 17.70 | 0.6 – 1.2 logK unit |  |  |  | 11.15 (4) | O=C(CCC(C(=O)O)N1CCN(C(CCC(=O)NCC(O)CO)C(=O)O)Cc2cccc(n2)CN(C(CCC(=O)NCC(O)CO)C(=O)O)CC1)NCC(O)CO (racemic) [rac‐L2] |  |  |  | 14.8 ± 0.1 mM⁻¹ s⁻¹ |  | 10.8 ± 0.1 mM⁻¹ s⁻¹ |

More lines, now with the values behind:

| Structure (SMILES) | logK GdL ([2]; 0.15 M NaCl, 25 °C) | logKGdH2L ([2]; 0.15 M NaCl, 25 °C) | logKGdH3L ([2]; 0.15 M NaCl, 25 °C) | logKGdHL ([2]; 0.15 M NaCl, 25 °C) | logK^c GdL ([2]; 0.15 M NaCl) | *logKGd(H2L) ([2]; 0.15 M NaCl, 25 °C) | pGd ([2]; 0.15 M NaCl) | logK^cGdL and pGd higher than that of the parent [Gd(PCTA)] [2] | stability constant of Gd(III)-complex higher than that of the racemic complex [2] | conditional stability higher than that of the racemic counterparts [2] | logKGdH4L ([2]; 0.15 M NaCl, 25 °C) | logKGdLH-1 ([2]; 0.15 M NaCl, 25 °C) | Relaxivity of GdH2L species ([1]; 21 MHz) | Relaxivity of GdH3L species ([1]; 21 MHz) | Relaxivity of GdHL species ([1]; 21 MHz) | Relaxivity of GdL species ([1]; 21 MHz) | Relaxivity of GdH4L species ([1]; 21 MHz) | Relaxivity of GdL species ([1]; 400 MHz) |
| --- | --- | --- | --- | --- | --- | --- | --- | --- | --- | --- | --- | --- | --- | --- | --- | --- | --- | --- |
| O=C(O)CCC(C(=O)O)N1CCN(C(CCC(=O)O)C(=O)O)Cc2cccc(n2)CN(C(CCC(=O)O)C(=O)O)CC1 (stereo not drawn) [ent‐L1] | 20.17 (9) | 4.52 (1) | 4.15 (2) | 5.28 (1) | 16.85 | 4.00 (3) | 17.80 | 0.6 – 1.2 logK unit | 1.5 logK unit |  |  |  | 12.2 ± 0.2 mM⁻¹ s⁻¹ | 11.8 ± 0.1 mM⁻¹ s⁻¹ | 12.1 ± 0.1 mM⁻¹ s⁻¹ | 12.9 ± 0.1 mM⁻¹ s⁻¹ |  |  |
| O=C([O-])CCC(C(=O)[O-])N1CCN(C(CCC(=O)[O-])C(=O)[O-])Cc2cccc(n2)CN(C(CCC(=O)[O-])C(=O)[O-])CC1.[Gd+3] (racemic) [[Gd(ent‐L1)]^3−] |  |  |  |  |  |  |  |  |  | 0.6 – 1.5 logK unit |  |  |  |  |  |  |  |  |
| O=C(O)CCC(C(=O)O)N1CCN(C(CCC(=O)O)C(=O)O)Cc2cccc(n2)CN(C(CCC(=O)O)C(=O)O)CC1 (racemic) [rac‐L1, 2,2’,2’’-[3,6,9,15-tetraazabicyclo[9.3.1]pentadeca-1(15),11,13-triene-3,6,9-triyl]tripentanedioic acid] | 18.65(5) | 4.43 (3) | 4.35 (3) | 5.32 (2) | 15.34 | 3.58 (2) | 16.33 |  |  |  | 2.25 (3) |  | 9.61 ± 0.06 mM⁻¹ s⁻¹ | 10.1 ± 0.1 mM⁻¹ s⁻¹ | 9.61 ± 0.06 mM⁻¹ s⁻¹ | 9.61 ± 0.06 mM⁻¹ s⁻¹ | 11.7 ± 0.1 mM⁻¹ s⁻¹ |  |
| O=C(CCC(C(=O)O)N1CCN(C(CCC(=O)NCC(O)CO)C(=O)O)Cc2cccc(n2)CN(C(CCC(=O)NCC(O)CO)C(=O)O)CC1)NCC(O)CO (stereo not drawn) [ent‐L2] | 20.36 (3) |  |  |  | 17.31 |  | 18.27 | 0.6 – 1.2 logK unit | 1.5 logK unit |  |  | 11.66 (1) |  |  |  | 16.2 ± 0.1 mM⁻¹ s⁻¹ |  | 11.8 ± 0.1 mM⁻¹ s⁻¹ |
